# According to patent US20250228881A1, “COMPOSITION FOR PREVENTION OR TREATMENT OF MULTIPLE MYELOMA COMPRISING NOVEL T[…] AS ACTIVE INGREDIENT” (KBLUEBIO INC, priority 2021, published 2025):
# Entries after “also recorded” stand apart in the source; their conditions may differ.
# What was measured:
# RPMI 8226 cells = experiment: Quantitative RT-PCR array of 84 apoptosis-related genes after KBB-N2 treatment; assay type: cell-based, Human; conditions: 50 μM KBB-N2, 48 hours
# Description: To investigate the cell death mechanism induced by treatment with KBB-N2, changes in the expression of apoptosis-related genes in a multiple myeloma cell line were measured. 50 μM of KBB-N2 was added to multiple myeloma cells (million cells/mL), followed by 48 hours of culture. Then, total RNA was extracted and the expression levels of 84 apoptosis-related genes were analyzed using quantitative RT-PCR array (Cat #PAHS-012Z; Qiagen Seoul, Seoul, Korea). After treating the cells with 50 μM of KBB-N2, the cells were cultured for 48 hours, and total RNA was isolated from the RPMI 8226 cells using the RNAqueous total RNA isolation kit (Thermo Fisher Scientific). Contaminating genomic DNA in the extracted RNA was removed using an RNase-Free DNase set (Qiagen). Total RNA (5 ug) was reverse transcribed into cDNA in a reaction volume of 10 μL using the RT2 First Strand Kit (Qiagen). Next, 10 μL of cDNA was combined with each primer set of the human apoptosis-related RT2 Profiler PCR Array (Qiagen) according to the manufacturer's protocol. Amplification reactions were performed using the real-time polymerase chain reaction system CFX96 (Bio-Rad, Hercules, CA, USA) with automated baseline and threshold cycle detection. The relative expression of […] genes was normalized to five built-in housekeeping genes. Each group was analyzed by the web-based software GeneGlobe Data Analysis Center (Qiagen).
# [1] = system: normal hematopoietic stem cells; experiment: Progenitor colony formation of normal PBSC fraction on methylcellulose (toxicity to hematopoietic stem cells); assay type: cell-based; conditions: normal donor PBSC, 2 weeks, KBB-N2 up to 60 μM
# Description: G-CSF was subcutaneously injected into a normal donor to mobilize hematopoietic stem cells, and a peripheral blood stem cell (PBSC) fraction was extracted from the donor's peripheral blood by leukapheresis. The obtained normal PBSC fraction and KBB-N2 were cultured on methylcellulose for 2 weeks, and the cytotoxicity of KBB-N2 to hematopoietic stem cells was evaluated by counting the number of the formed erythroid progenitor colonies and leukocyte/megakaryocytic progenitor colonies.
# [2] = system: multiple myeloma cell lines; experiment: Co-treatment of multiple myeloma cell lines with KBB-N2 and lenalidomide (killing effect); assay type: cell-based, Human; conditions: co-treated with lenalidomide, compared with lenalidomide alone
# Description: Multiple myeloma cells IM-9 and RPMI 8226 (3×10^6 cells/mL) treated with KBB-N2 for 48 hours were washed with 1x PBS (phosphate-buffered saline, pH 7.4) and fixed with 70% ethanol. After washing several times with 1×PBS, 5 μL of Annexin V-FITC and 5 μL of PI (propidium iodine) (Sigma-Aldrich, St. Louis, MO) were added to 500 μL of 1×PBS containing the cells (1×10^6 cells/mL) suspended therein, followed by staining in a dark room at room temperature for 30 minutes. Then, 500 μL of 1× binding buffer was added thereto, and flow cytometry was performed using FACSCalibur (Becton Dickinson, Franklin Lakes, NJ, USA), followed by analysis using the CellQuest software (Becton Dickinson) program.
# [3] = system: human-derived multiple myeloma cell lines ARH77, U266, and RPMI 8226; experiment: Multiple myeloma mouse xenograft model, tail vein administration; assay type: in vivo; conditions: xenograft mice
# Description: Using xenograft models obtained by injecting the same human-derived multiple myeloma cell lines ARH77, U266, and RPMI 8226 into mice, each of KBB-N2 was injected into the vein tail at 7 mg/Kg/day, and as a positive control, lenalidomide, which is currently widely used as a therapeutic agent for multiple myeloma in clinical practice, was injected into the vein tail at 1 mg/Kg/day.
smiles,measurement,setting,value
CC(C)=CCC[C@](C)(O)[C@H]1CC[C@]2(C)[C@@H]1[C@H](O)C[C@@H]1[C@@]3(C)CC[C@H](O[C@@H]4O[C@H](CO)[C@@H](O)[C@H](O)[C@H]4O)C(C)(C)[C@@H]3CC[C@]12C [KBB-N2],overexpression of apoptosis-related gene APAF1,RPMI 8226 cells,at least 2 fold
same,overexpression of apoptosis-related gene BAD,RPMI 8226 cells,at least 2 fold
same,overexpression of apoptosis-related gene BCL2,RPMI 8226 cells,at least 3 fold
same,overexpression of apoptosis-related gene BCL2L1,RPMI 8226 cells,at least 2 fold
same,overexpression of apoptosis-related gene CAS7,RPMI 8226 cells,at least 3 fold
same,overexpression of apoptosis-related gene CASP2,RPMI 8226 cells,at least 2 fold
same,overexpression of apoptosis-related gene CASP3,RPMI 8226 cells,at least 2 fold
same,overexpression of apoptosis-related gene DAPK1,RPMI 8226 cells,at least 4 fold
same,overexpression of apoptosis-related gene FADD,RPMI 8226 cells,at least 2 fold
same,overexpression of apoptosis-related gene HRK,RPMI 8226 cells,at least 2 fold
same,overexpression of apoptosis-related gene IGFIR,RPMI 8226 cells,at least 2 fold
same,overexpression of apoptosis-related gene LTBR,RPMI 8226 cells,at least 2 fold
same,overexpression of apoptosis-related gene NAIP,RPMI 8226 cells,at least 2 fold
same,overexpression of apoptosis-related gene NOD1,RPMI 8226 cells,at least 2 fold
same,overexpression of apoptosis-related gene NOL3,RPMI 8226 cells,at least 2 fold
same,overexpression of apoptosis-related gene TNF,RPMI 8226 cells,at least 2 fold
same,overexpression of apoptosis-related gene TNFRF1A,RPMI 8226 cells,at least 2 fold
same,overexpression of apoptosis-related gene TNFRSF1B,RPMI 8226 cells,at least 2 fold
same,overexpression of apoptosis-related gene TNFRSF10A,RPMI 8226 cells,at least 2 fold
same,overexpression of apoptosis-related gene TNFRSF10B,RPMI 8226 cells,at least 2 fold
same,overexpression of apoptosis-related gene TNFRSF25,RPMI 8226 cells,at least 2 fold
same,overexpression of apoptosis-related gene TP53,RPMI 8226 cells,at least 2 fold
same,overexpression of apoptosis-related gene TRADD,RPMI 8226 cells,at least 2 fold
same,overexpression of apoptosis-related gene XIAP,RPMI 8226 cells,at least 2 fold
same,cytotoxicity to hematopoietic stem cells: number and morphology/formation of progenitor cell colonies,[1],not toxic to normal hematopoietic stem cells; also recorded: not significantly inhibited
same,killing effect on co-treatment with lenalidomide,[2],killing effect was higher
same,therapeutic effect for multiple myeloma,[3]; KBB-N2 7 mg/Kg/day tail vein vs positive control lenalidomide 1 mg/Kg/day tail vein,therapeutic effect equal to or higher than that of traditional lenalidomide
same,effect on multiple myeloma treatment in bone marrow biopsy after treatment,[3]; bone marrow biopsy after treatment,effect of KBB-N2 on multiple myeloma treatment was also found
